From US9006450B2 (Boehringer Ingelheim International GmbH, priority 2010, dated 2015)

Molecular target: T1, human ACC2 (Homo sapiens, UniProt O00763)
T1 construct: made in house; host or cells: insect cells (baculoviral expression system)
Test: ACC2 assay, spectrophotometric 384 well assay (NADH-linked, coupled lactate dehydrogenase/pyruvate kinase)
Format: biochemical
Details: ACC2 assay, hACC2 construct lacking 128 N-terminal amino acids, 25° C., 340 nm; read-out: IC50
Outline: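 ADP output tracked via pyruvate kinase/lactate dehydrogenase NADH oxidation, slope at 340 nm over 15 min, 25° C, with 500 μM ATP and 200 μM each acetyl-CoA and NADH. Enzyme: insect-cell-expressed human ACC2, N-terminal 128 residues deleted; pH 7.5 Tris with citrate, KHCO3. IC50 from four-parameter regression versus vehicle and no-acetyl-CoA controls.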

T1 sequence (O00763 129-2458 limits assumed): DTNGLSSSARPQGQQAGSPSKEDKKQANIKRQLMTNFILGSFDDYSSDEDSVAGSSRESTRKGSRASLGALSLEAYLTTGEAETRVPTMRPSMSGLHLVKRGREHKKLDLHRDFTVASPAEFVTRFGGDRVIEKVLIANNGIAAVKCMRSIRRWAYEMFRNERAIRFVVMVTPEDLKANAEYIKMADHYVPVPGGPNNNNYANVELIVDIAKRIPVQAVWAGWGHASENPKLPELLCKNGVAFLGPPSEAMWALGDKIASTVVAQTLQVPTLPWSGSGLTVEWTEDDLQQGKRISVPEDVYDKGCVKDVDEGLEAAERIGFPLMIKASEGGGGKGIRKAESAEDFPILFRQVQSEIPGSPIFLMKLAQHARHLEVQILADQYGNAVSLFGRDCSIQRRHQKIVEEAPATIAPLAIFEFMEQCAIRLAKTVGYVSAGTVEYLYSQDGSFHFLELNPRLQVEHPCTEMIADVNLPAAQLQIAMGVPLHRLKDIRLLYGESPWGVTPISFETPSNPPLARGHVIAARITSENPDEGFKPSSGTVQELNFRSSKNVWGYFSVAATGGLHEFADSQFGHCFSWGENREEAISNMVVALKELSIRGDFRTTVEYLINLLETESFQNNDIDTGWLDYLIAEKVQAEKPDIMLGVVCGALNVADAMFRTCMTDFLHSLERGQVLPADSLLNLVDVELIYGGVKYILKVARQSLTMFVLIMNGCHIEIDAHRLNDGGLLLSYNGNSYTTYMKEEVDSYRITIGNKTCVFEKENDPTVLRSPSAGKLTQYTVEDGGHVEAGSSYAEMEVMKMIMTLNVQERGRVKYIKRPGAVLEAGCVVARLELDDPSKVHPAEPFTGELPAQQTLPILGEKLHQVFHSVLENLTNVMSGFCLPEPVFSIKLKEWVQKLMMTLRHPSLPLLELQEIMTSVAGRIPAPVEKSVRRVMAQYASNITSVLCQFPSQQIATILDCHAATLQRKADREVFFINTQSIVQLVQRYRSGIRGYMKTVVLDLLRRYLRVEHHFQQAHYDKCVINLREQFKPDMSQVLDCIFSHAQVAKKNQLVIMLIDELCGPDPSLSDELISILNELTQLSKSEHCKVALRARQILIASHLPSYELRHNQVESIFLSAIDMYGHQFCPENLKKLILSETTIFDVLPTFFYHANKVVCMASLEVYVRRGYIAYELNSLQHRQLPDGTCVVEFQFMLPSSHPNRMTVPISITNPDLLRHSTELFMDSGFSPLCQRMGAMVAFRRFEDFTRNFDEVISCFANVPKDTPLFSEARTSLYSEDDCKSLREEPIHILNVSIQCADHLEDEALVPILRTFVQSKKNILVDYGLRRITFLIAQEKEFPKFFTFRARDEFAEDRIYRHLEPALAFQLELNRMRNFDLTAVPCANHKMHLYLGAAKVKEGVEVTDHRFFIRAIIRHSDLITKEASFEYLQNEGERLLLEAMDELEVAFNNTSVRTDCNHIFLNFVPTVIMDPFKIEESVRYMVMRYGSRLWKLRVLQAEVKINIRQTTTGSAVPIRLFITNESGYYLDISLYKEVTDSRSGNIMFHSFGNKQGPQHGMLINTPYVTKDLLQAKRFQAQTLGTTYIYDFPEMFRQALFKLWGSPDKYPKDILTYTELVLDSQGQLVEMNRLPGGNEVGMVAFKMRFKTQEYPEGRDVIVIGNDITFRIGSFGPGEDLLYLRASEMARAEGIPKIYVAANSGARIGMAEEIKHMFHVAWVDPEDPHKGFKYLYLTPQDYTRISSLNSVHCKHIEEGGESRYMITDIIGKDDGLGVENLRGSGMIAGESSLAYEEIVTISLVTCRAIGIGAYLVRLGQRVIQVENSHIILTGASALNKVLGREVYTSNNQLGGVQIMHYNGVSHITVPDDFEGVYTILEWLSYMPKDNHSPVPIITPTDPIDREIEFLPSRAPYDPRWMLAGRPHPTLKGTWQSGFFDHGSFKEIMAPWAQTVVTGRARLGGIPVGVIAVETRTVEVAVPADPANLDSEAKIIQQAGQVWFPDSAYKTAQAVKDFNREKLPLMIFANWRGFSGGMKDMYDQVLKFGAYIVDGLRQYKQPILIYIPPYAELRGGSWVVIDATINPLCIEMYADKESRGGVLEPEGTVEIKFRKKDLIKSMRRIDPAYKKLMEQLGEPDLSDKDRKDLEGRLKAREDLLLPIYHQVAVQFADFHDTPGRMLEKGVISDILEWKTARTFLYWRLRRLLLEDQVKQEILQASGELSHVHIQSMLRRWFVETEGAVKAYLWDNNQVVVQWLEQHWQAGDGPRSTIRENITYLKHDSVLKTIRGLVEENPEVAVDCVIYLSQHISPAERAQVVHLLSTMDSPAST

| IC50 [µM] | Compound |
| --- | --- |
| 0.25 | CCOc1ccc(N2CCC(c3ccc([C@H](C)NC(=O)C4(C(F)(F)F)CC4)cc3)CC2)cc1 [Example 6.34] |
| 0.07 | C[C@H](NC(=O)C1CC1)c1ccc(C2CCN(c3ccc(OCC4CC4(F)F)cc3)CC2)cc1 (stereo partly shown) [Example 1.139] |
| 0.93 | CCOc1ncc(N2CCC(c3ccc([C@H](C)NC(C)=O)cc3)CC2)c(OC)n1 [Example 16.10] |
| 2.2 | CCOc1ccc(N2CCC(c3ccc([C@H](C)NC(=O)N4CCC4)cc3)CC2)cc1 [Example 14.66] |
| 0.44 | CCOCCOc1ccc(N2CCC(c3ccc([C@H](C)NC(C)=O)cc3)CC2)cc1 [Example 8.1] |
| 0.08 | CCC(=O)N[C@@H](C)c1ccc(C2CCN(c3ccc(OCC4CC4(F)F)cc3)CC2)cc1 (stereo partly shown) [Example 1.152] |
| 0.27 | CC(=O)N[C@@H](C)c1ccc(C2CCN(c3ccnc(OCc4cccc(F)c4)c3)CC2)cc1 [Example 19.32] |
| 0.56 | CC(=O)N[C@@H](C)c1ccc(C2CCN(c3ccc(OCC4CC4)c(Cl)c3)CC2)cc1 [Example 9.46] |
| 0.15 | CC(=O)N[C@@H](C)c1ccc(C2CCN(c3ccc(OCc4ccccc4)cc3)CC2)cc1 [Example 9.34] |
| 0.91 | CCN(CC)C(=O)c1cnc(N2CCC(c3ccc([C@H](C)NC(C)=O)cc3)CC2)nc1 [Example 18.91] |
| 0.36 | CC(=O)N[C@@H](C)c1ccc(C2CCN(c3ncc(-c4cccnc4)cn3)CC2)cc1 [Example 10.12] |
| 0.07 | CC(=O)N[C@@H](C)c1ccc(C2CCN(c3ccc(-c4ccc(Cl)cc4)cn3)CC2)cc1 [Example 5.44] |
| 8 | CC(=O)N[C@@H](C)c1ccc(C2CCN(c3cc(C#N)ccn3)CC2)cc1 [Example 5.28] |
| 0.21 | COc1ccc(-c2cnc(N3CCC(c4ccc([C@H](C)NC(C)=O)cc4)CC3)nc2)c(C(F)(F)F)c1 [Example 10.36] |
| 0.22 | CCC(C)Oc1ccc(N2CCC(c3ccc([C@H](C)NC(=O)C4CC4)cc3)CC2)cc1 (stereo partly shown) [Example 1.10] |
| 1.1 | CC(=O)N[C@@H](C)c1ccc(C2CCN(c3ccnc(OCC4CC4)n3)CC2)cc1 [Example 11.131] |
| 2.7 | CC(=O)N[C@@H](C)c1ccc(C2CCN(c3nc(C(C)C)no3)CC2)cc1 [Example 25.1, (S)—N-(1-{4-[1-(3-Isopropyl-[1,2,4]oxadiazol-5-yl)-piperidin-4-yl]-phenyl}-ethyl)-acetamide] |
| 0.57 | CC(=O)N[C@@H](C)c1ccc(C2CCN(c3ccc(OC(C)C)c(C)c3)CC2)cc1 [Example 8.23] |
| 0.18 | CC(=O)N[C@@H](C)c1ccc(C2CCN(c3ccnc(OCCC4CC4)c3)CC2)cc1 [Example 19.12] |
| 0.77 | CCCOc1ccc(N2CCC(c3ccc([C@H](C)NC(=O)C4CC4)cc3)CC2)c(OC)c1 [Example 1.116] |
| 1.5 | CC(=O)N[C@@H](C)c1ccc(C2CCN(c3ccnc(NC4CC4)n3)CC2)cc1 [Example 11.115] |
| 2.3 | CC(=O)N[C@@H](C)c1ccc(C2CCN(c3ccnc(NCCC(C)C)n3)CC2)cc1 [Example 11.71] |
| 25.4 | CNC(=O)c1csc(N2CCC(c3ccc([C@H](C)NC(C)=O)cc3)CC2)n1 [Example 5.9] |
| 4.3 | CC(=O)N[C@@H](C)c1ccc(C2CCN(c3ccnc(Nc4cncnc4)n3)CC2)cc1 [Example 11.117] |
| 1.6 | CC(=O)N[C@@H](C)c1ccc(C2CCN(c3ccnc(N4Cc5ccccc5C4)n3)CC2)cc1 [Example 11.88] |
| 0.15 | CCOc1ccc(N2CCC(c3ccc([C@H](C)NC(=O)C4(C)CC4)cc3)CC2)cc1 [Example 6.9] |
| 2 | CC(=O)N[C@@H](C)c1ccc(C2CCN(c3ncc(-c4cnccc4C)cn3)CC2)cc1 [Example 10.95] |
| 0.34 | CC(=O)N[C@@H](C)c1ccc(C2CCN(c3ncc(-c4ccc(C)cc4F)cn3)CC2)cc1 [Example 10.129] |

| IC50 [µM] | Compound |
| --- | --- |
| 1.1 | CC(=O)N[C@@H](C)c1ccc(C2CCN(c3ccc(C4CC4)nc3)CC2)cc1 [Example 1.175] |
| 0.9 | C[C@H](NC(=O)C1CC1)c1ccc(C2CCN(c3cccc(OCC4CC4)c3)CC2)cc1 [Example 1.77] |
| 3.9 | CCCOc1ccc(N2CCC(c3ccc(C(CC)NC(C)=O)cc3)CC2)c(OC)c1 (stereo not shown) [Example 15.20] |
| 11.3 | CCOc1ccc(N2CCC(c3ccc([C@H](C)NS(=O)(=O)C(F)(F)F)cc3)CC2)cc1 [Example 17.4] |
| 0.42 | C[C@H](NC(=O)C1CC1)c1ccc(C2CCN(c3ccnc(Oc4ccccc4)c3)CC2)cc1 [Example 3.14] |
| 0.24 | CCCOc1cnc(N2CCC(c3ccc([C@H](C)NC(C)=O)cc3)CC2)c(F)c1 [Example 1.105] |
| 0.27 | CC(=O)N[C@@H](C)c1ccc(C2CCN(c3cc(OCC4CCCC4)ncn3)CC2)cc1 [Example 11.10] |
| 0.56 | CC(=O)N[C@@H](C)c1ccc(C2CCN(c3ccnc(OC(C)C)n3)CC2)cc1 [Example 11.38] |
| 4 | COC1CN(c2cc(N3CCC(c4ccc([C@H](C)NC(C)=O)cc4)CC3)ncn2)C1 [Example 11.79] |
| 0.31 | CCOc1ccc(N2CCC(c3ccc([C@H](C)NC(=O)N(C)C)cc3)CC2)nc1 [Example 1.179] |
| 2.5 | CC(=O)N[C@@H](C)c1ccc(C2CCN(c3cc(-c4ccc5c(c4)OCO5)ncn3)CC2)cc1 [Example 22.2] |
| 5.3 | CC(=O)N[C@@H](C)c1ccc(C2CCN(c3ccnc(NCc4ccco4)n3)CC2)cc1 [Example 11.60] |
| 0.58 | CCOc1cc(N2CCC(c3ccc([C@H](C)NC(C)=O)cc3)CC2)ncn1 [Example 11.36] |
| 0.2 | CC#CCOc1cccc(N2CCC(c3ccc([C@H](C)NC(C)=O)cc3)CC2)c1 [Example 9.8] |
| 0.63 | CCOc1ccc(N2CCC(c3ccc([C@H](C)NC(C)=O)cc3)CC2)c(OCC)c1 [Example 1.42] |
| 8.3 | CCOc1ccc(N2CCC(c3ccc([C@H](C)NC(=O)CNC(=O)OC(C)(C)C)cc3)CC2)cc1 [Example 6.49] |
| 0.35 | CC(=O)N[C@@H](C)c1ccc(C2CCN(c3ncc(-c4ccc5c(c4)CCCO5)cn3)CC2)cc1 [Example 10.90] |
| 0.1 | C[C@H](NC(=O)C1CC1)c1ccc(C2CCN(c3ncc(-c4ccccc4)cn3)CC2)cc1 [Example 10.105] |
| 1.8 | CC(=O)NC(C)Cc1ccc(C2CCN(c3ccc4c(c3)OCCO4)CC2)cc1 (stereo not shown) [Example 2.4] |
| 0.06 | CC(=O)N[C@@H](C)c1ccc(C2CCN(c3ccc(OCC4CCC4)cc3)CC2)cc1 [Example 9.29] |
| 0.93 | C[C@H](NC(=O)C1CC1)c1ccc(C2CCN(c3ccnc(Oc4cncnc4)c3)CC2)cc1 [Example 1.108] |
| 0.21 | CC(=O)N[C@@H](C)c1ccc(C2CCN(c3ccc(OC(C)c4ccccc4)cc3)CC2)cc1 (stereo partly shown) [Example 9.35] |
| 0.61 | CC(=O)N[C@@H](C)c1ccc(C2CCN(c3ccnc(N4CC5CCCC5C4)n3)CC2)cc1 (stereo partly shown) [Example 11.78] |
| 0.24 | CC(=O)N[C@@H](C)c1ccc(C2CCN(c3cc(Oc4ccccc4F)ncn3)CC2)cc1 [Example 11.25] |
| 0.34 | C[C@H](NC(=O)C1CC1)c1ccc(C2CCN(c3nc(N(C)CC4CC4)ncc3F)CC2)cc1 [Example 11.125] |
| 8.2 | CC(=O)N[C@@H](C)c1ccc(C2CCN(c3ncc(-c4ccccc4CC#N)cn3)CC2)cc1 [Example 10.97] |
| 0.11 | CC(=O)N[C@@H](C)c1ccc(C2CCN(c3ccc(C(C)C)cc3)CC2)cc1 [Example 1.52] |
